The assay relates to papillary muscle of guinea-pig. As to the kind of experiment: Myocardial contractility (developed tension) in isolated papillary muscle of guinea-pig. The settings on record: for change in developed tension: isolated papillary muscle, 1 Hz stimulation; for tension development (positive inotropic action) vs baseline: applied cumulatively 10, 30 and 100 μM, n=5, FIG. 1. The method, then: The direct effect of pralmorelin on myocardial contractility was evaluated using the isolated cardiac muscle of guinea-pigs according to the standard method for evaluating myocardial contractility.
Male Hartley guinea-pigs (body weight, 301-350 g; Japan SLC) were purchased. The animals were accommodated to an environment at a temperature of 23±2° C. and a humidity of 55±15% under 12-hr light/dark cycles while they were allowed to eat and drink water ad libitum until they weighed 360-480 g. Each test substance was tested on a group of five animals.
The test substances were pralmorelin dihydrochloride (KP-102), representatives of growth hormone secretagogues such as hexarelin, ghrelin and ibutamorelin methanesulfonate (the last being hereunder referred to as MK-0677) (which were prepared by the method described in JP 6-263737 A (kokai)), as well as a recombinant human growth hormone (Sumitomo Pharmaceutical) and amrinone (Sigma) which is a known therapeutic of acute heart failure. KP-102, hexarelin and MK-0677 were dissolved in distilled water. Ghrelin was dissolved in physiological saline. Amrinone was first dissolved in dimethyl sulfoxide and then diluted with physiological saline. The growth hormone was dissolved in a dedicated solubilizer (0.3 w/v % metacresol and 3.9 w/v % D-mannitol). None of the test substance solutions should be added in an amount exceeding 1 w/v %. All reagents other than the test substances were guaranteed products of Nacalai Tesque.
The guinea-pigs were stunned with a blow to the back of their head; thereafter, the carotid artery was incised and the animals were exsanguinated to death. The chest was opened, the blood vessels in the upper part of the heart were cut and the heart was removed. The heart was immediately transferred into a Krebs-Henseleit (K-H) nutrient solution (NaCl, 118.0 mM; KCl, 4.7 mM; CaCl2. 2H2O, 1.0 mM; KH2PO4, 1.2 mM; MgSO4.7H2O, 1.2 mM; NaHCO3, 25.0 mM; glucose, 11.0 mM) that had been fully aerated with 95% O2-5% CO2. The heart was fixed on a rubber-lined Petri dish with needles such that its front face was seen. The ventricular wall of the upper right ventricle (toward the atrium) was excised transversely along the atrium, then excised longitudinally along the interventricular septum so that the ventricular wall was opened to expose the right ventricular papillary muscle. Subsequently, the entire surface of the left ventricle was cut open from the aorta (down) to the apex and the anterior wall of the left ventricle was opened wide, to both right and left, and fixed to expose the papillary muscle of the left ventricle. The tricupsid or mitral valve was cut off from the ventricle and the papillary muscle was cut off at the base to prepare a specimen of papillary muscle. The base of the specimen was fixed to field stimulating electrodes in an organ bath filled with 15 mL of the nutrient solution. The tendinous cord adhering to the valve was tied up with a thread and connected to an FD pickup (TB-612T, Nihon Kohden). A resting tension of 0.5 g was loaded and the papillary muscle was driven with an electric stimulator (SEN-3201, Nihon Kohden) at a frequency of 1 Hz by pulses of 20-ms duration and at a voltage intensity about 1.2 times the threshold. After an equilibration period of about 1 hr, KP-102, hexarelin and amrinone were each applied cumulatively up to amounts of 10, 30 and 100 μM. After examination of the changes in inotropic action due to the application of the test substances, 12.5 mM of CaCl2 was added and the maximum tension that was developed by each specimen was obtained. The developed tension was recorded with a multi-purpose preamplifier (RMP-6008, Nihon Kohden) and a recorder (WT-647G, Nihon Kohden).
Each result was expressed by mean ± standard error. […]

Where a SMILES comes first, the peptide text is derived from it. [ ]: non-standard residue; d: D form. dTrp(2-Me) = Cc1[nH]c2ccccc2c1C[C@@H](N)C(=O)O

As to `CC(C)(N)C(=O)N[C@H](COCc1ccccc1)C(=O)N1CCC2(CC1)CN(S(C)(=O)=O)c1ccccc12` [MK-0677, ibutamorelin methanesulfonate], under “100 μM”, the “change in developed tension” value is “no changes in the developed tension”.
For `Nc1cc(-c2ccncc2)c[nH]c1=O` [amrinone], the “tension development (positive inotropic action) vs baseline” value was “increased in a concentration-dependent manner”.
Still for that read-out and setting: for `Cc1[nH]c2ccccc2c1C[C@@H](NC(=O)[C@@H](N)Cc1cnc[nH]1)C(=O)N[C@@H](C)C(=O)N[C@@H](Cc1c[nH]c2ccccc12)C(=O)N[C@H](Cc1ccccc1)C(=O)N[C@@H](CCCCN)C(N)=O` [hexarelin] (H-H[dTrp(2-Me)]AW[dF]K-NH2) the value was “very weak and by no means significant over the baseline value”.
In the case of ghrelin, the “change in developed tension” value (1 μM) is on record as “no changes in the developed tension”.
For “recombinant human growth hormone: recombinant human growth hormone (Sumitomo Pharmaceutical)”, the “change in developed tension” value (0.2 IU/mL) is recorded as “no changes in the developed tension”.

Source of the values: patent publication US20040014671A1, “Preventives or remedies for heart failure” (priority 2000, published 2004).
